Results taken from patent publication US5776935A, “Pyrido-phtalazin diones and their use against neurological disorders associated with excitotoxicity and malfunctioning of glutamatergic neurotransmission” (Merz & Co. GmbH & Co., priority 1996, dated 1998).
Counter-ions that a name gives are not always drawn. Like-named read-outs stand apart in the source and are kept apart here.

Tests used:
[1] = biological target: T1, NMDA receptor (Rattus norvegicus, UniProt P35439); assay: Patch clamp, inward currents to NMDA in cultured superior colliculus neurones; format: cell-based; conditions: NMDA 200 μM, glycine 1 μM
T1 construct: endogenous in cells
Experimental: Cells were mechanically dissociated in 0.05% DNAase / 0.3% ovomucoid (Sigma) following a 15 minute pre-incubation with 0.66% trypsin / 0.1% DNAase (Sigma). The dissociated cells were then centrifuged at 18G for 10 minutes, resuspended in minimum essential medium (Gibco) and plated at a density of 200,000 cells cm onto poly-L-lysine (Sigma)-precoated plastic petri dishes (Falcon). The cells were nourished with NaHCO3 /HEPES-buffered minimum essential medium supplemented with 5% foetal calf serum and 5% horse serum (Gibco) and incubated at 37° C. with 5%CO2 at 95% humidity. The medium was exchanged completely following inhibition of further glial mitosis with cytosine-β-D-arabinofuranoside (20 μM Sigma) after about 7 days in vitro. Thereafter the medium was exchanged partially twice weekly. […] Moreover, the relatively small neurones (soma 15-20 μm .phi.) are ideally suited to minimise problems of buffered diffusion for concentration clamp experiments.
Patch clamp recordings were made from these neurones with polished glass electrodes (4-6 m.OMEGA.) in the whole cell mode at room temperature (20°-22° C.) with the aid of an EPC-7 amplifier (List). Test substances were applied by switching channels of a custom made fast superfusion system with a common outflow (10-20 ms exchange times). The contents of the intracellular solution were as follows (mM): CsCl (120), TEACl (20), EGTA (10), MgCl2 (1), CaCl2 (0.2), glucose (10), ATP (2), cAMP (0.25); pH was adjusted to 7.3 with CsOH or HCl. The extracellular solutions had the following basic composition (mM): NaCl (140), KCl (3), CaCl2 (0.2), glucose (10), HEPES (10), sucrose (4.5), tetrodotoxin (TTX 3*10-4). For most experiments glycine (1 μM) was present in all solutions. Experiments to test the glycine-dependence of the tricyclic "pyrido-phtalazin diones" were performed in the continuous presence of increasing concentrations of glycine (1-10 μM).
This effect was mediated at the glycineB site as evidenced by the parallel shift in the concentration-response curves in the presence of increasing glycine concentrations. Thus the Kbs of Mrz 2/502 as assessed according to the Cheng-Prusoff relationship were similar in glycine 1, 3 and 10 μM (80, 124 and 118 nM respectively). […] Choline derivatives had similar potencies to the free acids in vitro (Table14b).

[2] = biological target: T2, glycineB site of the NMDA receptor (rat cortical membranes) (Rattus norvegicus, UniProt P35439); assay: [3H]5,7-DCKA binding assay; conditions: 10 nM [3H]5,7-DCKA
T2 construct: The cortex was dissected and homogenised in 20 volumes of ice-cold 0.32M sucrose; from tissue; host or cells: brain cortex membranes of male Sprague-Dawley rats
Experimental: Tissue preparation was performed according to Foster and Wong (1987). Male Sprague-Dawley rats (200-250g) were decapitated and their brains were removed rapidly. The cortex was dissected and homogenised in 20 volumes of ice-cold 0.32M sucrose using a glass-Teflon homogenizer. The homogenate was centrifuged at 1000×g for 10 min. The pellet was discarded and the supernatant centrifuged at 20,000×g for 20 min. The resulting pellet was resuspended in 20 volumes of distilled water and centrifuged for 20 min at 8000×g. Then the supernatant and the buffy coat were centrifuged three times (48,000× g for 20 min) in the presence of 5 mM Tris-HCl, pH 7.4. All centrifugation steps were carried out at 4° C. After resuspension in 5 volumes of 5 mM Tris-HCl, pH 7.4 the membrane suspension was frozen rapidly at -80° C. until the day of assay. On the day of assay the membranes were thawed and washed four times by resuspension in 5 mM Tris-HCl, pH 7.4 and centrifugation at 48,000× g for 20 min. The final pellet was suspended in assay buffer.
The amount of protein in the final membrane preparation was determined according to the method of Lowry (1951) with some modifications (Hartfree, 1972). 50 μl of Protein samples (in triplicates) were diluted to 1 ml with distilled water and treated with 0.9 ml of a solution containing 2 g potassium sodium tartrate and 10 g Na2 CO3 in 500 ml 1N NaOH and 500ml water. Blank and standard (with bovine serum albumin) were set up in the same way. The tubes were placed in a water bath at 50° C. for 10 min. and cooled at room temperature. 100 μl of a solution containing 2 g potassium sodium tartrate and 1 g CuSO4 x 5 H2 O in 90 ml water and 10 ml 1N NaOH were added. The samples were left at room temperature for at least 10 min., then 3 ml of Folin-Ciocalteu reagent (1 ml of reagent diluted with 15 ml water) was added rapidly during mixing. The tubes were again heated at 50° C. for 10 min. and cooled to room temperature. Absorbencies were then read in 1 cm cuvets at 650 nm. The final protein concentration used for our studies was between 100 and 250 μg/ml.
Incubation in both binding assays was terminated using a Millipore filter system. The samples, all in triplicate, were rinsed three times with 2.5 ml ice cold assay buffer over glass fibre filters obtained from Schleicher & Schuell under a constant vacuum. Following separation and rinse the filters were placed into scintillation liquid (5 ml; Ultima Gold) and radioactivity retained on the filters was determined by using conventional liquid scintillation counter (Hewlett Packard, Liquid Scintillation Analyser). `Total binding` was the absolute amount of radioligand bound in the absence of any additives whereas `non-specific` binding was determined in the presence of a high concentration of competitor.
[^3 H]5,7-DCKA binding assay
Experiments were performed according to the methods modified from previous groups (Canton et al., 1991; Yoneda et al., 1993). Membranes were suspended and incubated in 10 mM Tris-HCl, pH 7.4. Incubation time was 45 min at 4° C. Non-specific binding of [^3 H]5,7-DCKA was defined by the addition of unlabeled glycine at 0.1 mM. The stop-solution contained 10 mM Tris-HCl and 10 mM magnesium sulphate, pH 7.4. Filtration was performed as rapidly as possible. Displacement experiments were performed with a fixed [^3 H]5,7-DCKA concentration of 10 nM. Test compounds were diluted in water or DMSO and added in at least 5 different concentrations.

[3] = biological target: T3, NMDA receptor (Mus musculus, UniProt P35438); assay: NMDA-induced convulsions / lethality test; format: in vivo; conditions: ip, 0.25 h, i.p., 15 min before induction, read-out: NMDA ID50
T3 construct: from tissue; host or cells: living mice (albino Swiss males for NMDA and PTZ tests, NMR females for MES)
Experimental: (§1) To assess NMDA receptor antagonistic properties of the tested agents by assessing anticonvulsive effects. Additionally the role of organic acid transporters in the elimination from the brain of tested agents was assessed by using an inhibitor, Probenicid, on the duration of anticonvulsive activity.
(§2) Male albino Swiss mice (19-21 g) housed 10-15 per cage were used for the NMDA lethality test (Leander et al., 1988). For pentylenetetrazol (PTZ)-induced convulsions male albino Swiss mice (25-34 g.) housed 40 per cage (58×38×20 cm) were used while in the maximal electroshock (MES) and motor impairment tests NMR female mice (18-28 g) housed 5 per cage were employed. All animals were kept with water and food ad libittum under a 12-h light-dark cycle (light on at 6 a.m.), and at a controlled temperature (20°±0.5° C.). All experiments were performed between 10 a.m. and 5 p.m. Tested agents were injected 15 min. i.p before the induction of convulsions if not stated otherwise (see below). Mrz 2/502 was dissolved in saline added with NaOH. Most other agents were dissolved in the following solution: 0.606 g Tris; 5.0 g. glucose; 0.5 g. Tween 80; and 95 ml water. The choline and tetramethylammonium salts were dissolved in distilled water.
In the NMDA-induced convulsions test in mice, a dose-response relationship for NMDA was first performed to determine the ED97 dose which was then used for testing of antagonistic properties. After injection of the ED97 dose of NMDA the animals were placed in a small cage (20×28×14 cm) and observed for 20 min. Death preceded by clonic convulsions and by tonic seizures was the pharmacological end-point.

[4] = biological target: T3, NMDA receptor; assay: Maximal electroshock (MES)-induced tonic convulsions; format: in vivo; conditions: i.p., 15 min before induction; for ED50: mouse, ip, 0.25 h, read-out: MES ID50
Experimental: as §1, §2
MES (100 Hz, 0.5 sec shock duration, 50 mA shock intensity, 0.9 ms impulse duration, Ugo Basile) was applied through corneal electrodes. The presence of tonic convulsions was scored (tonic extension of hind paws with minimum angle to the body of 90°). In an additional experiment mice were injected with Probenicid (200 mg/kg) 30 min before administration of the tested agents to assess the role of organic acid transport in elimination (duration of action). The aim was to obtain ED50 s for all parameters scored using the Litchfield Wilcoxon (1949) test for quantal dose responses.

[5] = test system: AMPA; assay: Microelectrophoretic application of AMPA to spinal neurones in vivo; conditions: i.v., responses of single rat spinal neurones
Experimental: (§3) The ability of these glycineB antagonists to act as NMDA receptor antagonists in vivo was assessed using i.v. administration against responses of single neurones in the rat spinal cord to microelectrophoretic application of AMPA and NMDA.

[6] = biological target: T1, NMDA receptor; assay: Microelectrophoretic application of NMDA to spinal neurones in vivo; conditions: responses of single rat spinal neurones; for ED50: rat, iv, read-out: Microelectrophoretic NMDA ID50
Experimental: as §3

[7] = peak currents, read-out: Peak NMDA IC50
[8] = plateau (steady-state) currents, read-out: Plateau NMDA IC50

Structure (SMILES)	IC50 [1, 7]	IC50 [1, 8]	IC50 [2]	ED50 [3]	ED50 [4]	Microelectrophoretic AMPA ID50 [5]	MES ID50 ([4]; listed as 569, 15 min)	ED50 [6]	Microelectrophoretic AMPA ID50 ([5]; listed as 571)	MES ID50 ([4]; listed as 571, 15 min)	Microelectrophoretic NMDA ID50 ([6]; i.v., listed as 571)	MES ID50 ([4]; listed as 572, 15 min)
O=c1[nH]nc(O)c2c1cc1cc(Cl)c(Cl)cc1[n+]2[O-] [Mrz 2/518, 7,8-dichloro-4-hydroxy-1-oxo-1,2-dihydropyridazino-[4,5-b]-quinoline 5-oxide]	3.8 µM	0.8 µM	0.65 µM	> 100 mg/kg	> 60 mg/kg							
O=c1[nH]nc(O)c2c1cc1cc(Br)c(Cl)cc1[n+]2[O-] [Mrz 2/551, 7-chloro-8-bromo-4-hydroxy-1-oxo-1,2-dihydropyridazino-[4,5-b]-quinoline 5-oxide]	2.4 µM	0.6 µM										
COc1ccc2nc3c(=O)[nH][nH]c(=O)c3cc2c1 [Mrz 2/554]	170 µM	36.2 µM			> 100 mg/kg							
O=c1[nH]nc(O)c2c1cc1cc(Cl)c(Br)cc1[n+]2[O-] [Mrz 2/568, 7-bromo-8-chloro-4-hydroxy-1-oxo-1,2-dihydropyridazino-[4,5-b]-quinoline 5-oxide]	10 µM	1.5 µM										
O=c1[nH][nH]c(=O)c2nc3ccc(Cl)cc3cc12 [Mrz 2/569]	2 µM	0.5 µM	0.97 µM			> 16.0 mg/kg	> 50 mg/kg	> 16 mg/kg				
O=c1[nH]nc(O)c2c1cc1cc(F)ccc1[n+]2[O-] [Mrz 2/571, 8-fluoro-4-hydroxy-1-oxo-1,2-dihydropyridazino[4,5-b]-quinoline 5-oxide choline salt]	4.9 µM	1 µM	0.32 µM						9.2 mg/kg	15.5 mg/kg	4.7 mg/kg	
O=c1[nH][nH]c(=O)c2nc3ccc(F)cc3cc12 [Mrz 2/572]	12.4 µM	3.5 µM	1.14 µM			> 16.0 mg/kg		> 16 mg/kg				> 100 mg/kg
